In general, melting point refers to the temperature, or range, at which the solid turns liquid.

Structures can show the parent of a compound that is named as a salt.

The first data set deals with cAMP-specific phosphodiesterase (PDE IV). The data set can be described thus: Inhibition of the PDE IV enzyme derived from a dog trachea. To be noted: test compound 10^−6 M; PDE IV from dog tracheal smooth muscle; substrate cAMP 1 μM. Format: biochemical. How it is done:
cAMP-specific phosphodiesterase (PDE IV) was purified from a dog tracheal smooth muscle according to the method of Torphy et al. [Molecular Pharmacol., 37, 206-214 (1990)]. The PDE activity was measured by the following two steps according to the method of Kincaid and Manganiello et al. [Method in Enzymology (J. D. Corbin and R. A. Jonson, Eds.), 199, 457-470 (1988)]. Using [^3]cAMP (at a final concentration of 1 μM) as a substrate, the reaction was carried out in a standard mixture containing N,N-bis(2-hydroxyethyl)-2-aminoethanesulfonic acid (50 mM, pH=7.2), MgCl2 (1 mM), and soybean trypsin inhibitor (0.1 mg/ml). The reaction was initiated by adding the enzyme, followed by incubation at 30° C. for 10 to 30 minutes. After stopping the reaction with hydrochloric acid, the generated […] was completely converted to adenosine by 5′-nucleotidase.
The resultant was subjected to chromatography on DEAE-Sephadex A-25, and radio activity of the eluted [^3H] adenosine was counted using a scintillation counter. Each of the test drugs was dissolved in DMSO (final concentration 1.7%) and then added to the mixture.
On to `CCC1(CC)Cc2c(CCc3ccncc3)ccc(OC)c2O1.Cl` [Compound 51, 2,2-Diethyl-7-methoxy-4-[2-(4-pyridyl)ethyl]-2,3-dihydrobenzofuran.hydrochloride], for which the “Enzyme Inhibitory Activity (%, 10^−6 M)” value stood at 67%.

Turning to `COc1ccc(C(C)=Cc2ccncc2)c2c1OC1(CCCC1)C2` [Compound 75, 7-Methoxy-4-[1-methyl-2-(4-pyridyl)ethenyl]-spiro[2,3-dihydrobenzofuran-2,1′-cyclopentane]], the “Enzyme Inhibitory Activity (%, 10^−6 M)” value was determined as 72%.

With `COc1ccc(C=Cc2ccncc2)c2c1OC1(CCCC1)CC2.Cl` [Compound 125, 8-Methoxy-5-[2-(4-pyridyl)ethenyl]-spiro[3,4-dihydrobenzopyran-2,1′-cyclopentane].hydrochloride], the “Enzyme Inhibitory Activity (%, 10^−6 M)” value was found to be 71%.

System in another data set: not given
Assay: not given
Conditions: not given
In the case of `COc1ccc(CCc2ccncc2)c2c1OCCCO2.Cl`, the melting point fell in the range of 185 to 187 °C.

In turn, `COC(=O)c1cccc(-c2ccc(OC)c3c2CC(C)(C)O3)c1` returned a melting point of 89 to 91 °C.

As to `CCOC(=O)c1ccc(-c2ccc(OC)c3c2OCCO3)cc1`, the melting point is 141 to 141.5 °C.

Consider `COc1ccc(C(=O)Cc2c(Cl)cncc2Cl)c2c(CC(=O)OCc3ccccc3)coc12`, for which the melting point is 132 to 133 °C.

In turn, `COc1ccc(C(=O)Nc2c(Cl)cccc2Cl)c2c1OCCO2` came in with a melting point of 176 to 177 °C.

Take `COc1ccc(C(=O)Nc2c(Cl)cncc2Cl)c2c1OCCCCO2`: the melting point was 115 to 117 °C.

In turn, `COc1ccc(/C=C/c2c(Cl)cncc2Cl)c2c1OC(C)(C)C2` showed a melting point of 114 to 118 °C.

For the compound `COc1ccc(C(=O)Cc2c(Cl)cncc2Cl)c2cc(C(=O)c3ccccc3)oc12`, the melting point was in the range of 213 to 215 °C.

Regarding `COc1ccc(C(=O)Cc2c(Cl)cncc2Cl)c2c1OC(c1ccccc1)(c1ccccc1)O2`, the melting point was 156 to 157 °C.

As for `COc1ccc(C(=O)Cc2ccncc2)c2c1CC1(CCCC1)O2`, the melting point is 101 to 103 °C.

Take `COc1ccc(C(=O)Cc2c(Cl)cncc2Cl)c2c1OC(C)(C)O2`: the melting point lay in the range of 133 to 134 °C.

`COc1ccc(C(=O)Nc2c(C)cccc2C)c2c(CC(=O)OCc3ccccc3)coc12` gave a melting point of 202 to 204 °C.

`COc1ccc(C=C(C#N)C#N)c2c1OC(C)(C)C2` displayed a melting point of 198 to 200 °C.

The compound `COc1ccc(C(C)=Cc2ccncc2)c2c1OC1(CCCC1)C2` (as salt: salt) [Compound 75, 7-Methoxy-4-[1-methyl-2-(4-pyridyl)ethenyl]-spiro[2,3-dihydrobenzofuran-2,1′-cyclopentane]] gave a melting point of 85 to 87 °C.

Compound `COc1ccc(/C=C/c2c(Cl)cncc2Cl)c2c1OCC2C` (racemic) showed a melting point of 117 to 118 °C.

Regarding `COc1ccc(C(=O)Nc2ccncc2)c2c1CC1(CCCC1)O2.CS(=O)(=O)O`, the melting point was 164 °C (dec.).

Compound `CCOC(=O)Cc1coc2c(OC)ccc(C(=O)Cc3c(Cl)cncc3Cl)c12` came in with a melting point of 105 to 115 °C.

Compound `COc1ccc(C(=O)Cc2c(Cl)cccc2Cl)c2cc(C(=O)N(C)c3cccc(F)c3)oc12` showed a melting point of 198 to 199 °C.

Compound `COc1ccc(C(=O)Nc2cccc(C(=O)O)c2)c2cc(C(=O)c3ccccc3)oc12` showed a melting point of 262 to 263 °C.

In turn, `COc1ccc(C(=O)Nc2c(Cl)cncc2Cl)c2c1OCCO2` yielded a melting point of 143 to 145 °C.

As to `CCOC(=O)Cc1coc2c(OC)ccc(C(=O)Cc3c(Cl)cccc3Cl)c12`, the melting point is 153 to 154 °C.

Consider `COc1ccc(C(=O)Cc2c(Cl)cccc2Cl)c2c1OCCO2`, for which the melting point was in the range of 154 to 155 °C.

`COc1ccc(C(=O)Cc2c(Cl)cncc2Cl)c2c(CC(=O)O)coc12` yielded a melting point of 192 to 194 °C.

`COc1ccc(/C=C/C(=O)Nc2ccncc2)c2c1OC1(CCCC1)C2`: the melting point lay in the range of 124 to 128 °C.

`COc1ccc(C(=O)Nc2cccc(C(=O)O)c2)c2c1OCCO2` returned a melting point of 283 to 284 °C.

The compound `COc1ccc(C(=O)Nc2c(Cl)cncc2Cl)c2c1OCC2` came in with a melting point of 196 to 197 °C.

The compound `COC(=O)c1ccc(-c2ccc(OC)c3c2CC(C)(C)O3)cc1` gave a melting point of 116 to 122 °C.

Consider `COc1ccc(C(=O)Cc2c(Cl)cncc2Cl)c2c1OCCO2`, for which the melting point is 158 to 160 °C.

The compound `COc1ccc(C(C)=Cc2ccncc2)c2c1OC(C)(C)C2` had a melting point of 85 to 87 °C.

`COc1ccc(CNc2ccncc2)c2c1OCC2C` (racemic) had a melting point of 138 to 145 °C.

As for `COc1ccc(C(=O)Cc2c(Cl)cncc2Cl)c2c1OC(C)(C)C2`, the melting point lay in the range of 127 to 131 °C.

Compound `COc1ccc(-c2cccc(C(=O)O)c2)c2c1OC(C)(C)C2` displayed a melting point of 220 to 225 °C.

In turn, `COc1ccc(C(=O)Nc2c(F)cccc2F)c2c(CC(=O)OCc3ccccc3)coc12` gave a melting point of 223 to 224 °C.

Consider `COc1ccc(C(=O)Cc2ccncc2)c2c1OCCO2.Cl`, for which the melting point fell in the range of 226 to 228 °C.

On to `COc1ccc(C(=O)Cc2c(Cl)cncc2Cl)c2cc(C#N)oc12`, for which the melting point lay in the range of 197 to 199 °C.

In the case of `COc1ccc(C(=O)Nc2c(Cl)cncc2Cl)c2c1OCCCO2`, the melting point lay within 149 to 150 °C.

In turn, `COc1ccc(C(=O)Cc2ccncc2)c2c1OCCCO2.Cl` yielded a melting point of 205 to 208 °C.

Compound `COc1ccc(C(=O)Cc2ccncc2)c2c1OC(C)(C)C2` gave a melting point of 107 to 111 °C.

`COc1ccc(C(=O)Cc2c(Cl)cncc2Cl)c2c1OCC2CC(=O)OCc1ccccc1` (centres unmarked) displayed a melting point of 120 to 122 °C.

As for `COc1ccc(/C=C/c2c(Cl)cncc2Cl)c2cc(-c3ccncc3)oc12`, the melting point lay in the range of 204 to 206 °C.

`COc1ccc(C(=O)Nc2c(Cl)cncc2Cl)c2c1CC1(CCCC1)O2` came in with a melting point of 156 to 158 °C.

For the compound `CCOC(=O)Cc1coc2c(OC)ccc(C(=O)Cc3ccncc3)c12`, the melting point lay in the range of 111 to 117 °C.

`CCN1CCN(C(=O)c2cc3c(C(=O)Cc4c(Cl)cncc4Cl)ccc(OC)c3o2)CC1.O=C(O)/C=C/C(=O)O` gave a melting point of 196 to 197 °C.

As to `COc1ccc(-c2ccc(C(=O)O)cc2)c2c1OC(C)(C)C2`, the melting point was in the range of 249 to 252 °C.

`CCOC(=O)c1cccc(NC(=O)c2ccc(OC)c3c2OCCO3)c1` came in with a melting point of 174 to 175 °C.

`COc1ccc(C(=O)Nc2ccncc2)c2c1OC(C)(C)O2` showed a melting point of 180 to 181 °C.

Turning to `COc1ccc(C(=O)Cc2c(Cl)cncc2Cl)c2c1OCO2`, the melting point fell in the range of 170 to 171 °C.

Compound `COc1ccc(-c2ccc(C(=O)O)cc2)c2c1OCCO2` displayed a melting point of 281 to 284 °C.

For `COC1(OC)CC=C(C(Cc2ccncc2)c2ccccc2)C2=C1OC(C)(C)C2` (racemic) [Compound 47, (±) 7-Methoxy-2,2-dimethyl-7-methoxy-4-[1-phenyl-2-(4-pyridyl)ethyl]-2,3-dihydrobenzofuran], the melting point lay within 78 to 81 °C.

As for `COc1ccc(C(=O)Nc2c(Cl)cncc2Cl)c2cc(Cc3ccccc3)oc12`, the melting point fell in the range of 141 to 142 °C.

The values above are taken from patent US6716987B1, “Derivatives of benzofuran or benzodioxazole compounds” (Kyowa Hakko Kogyo Co., Ltd., priority 1995, dated 2004).
